Counter-ions that a name gives are not always drawn.

Data on one compound can be found in patent US20060147569A1, “Anti-depression formulations” (priority 2005, published 2006).

One experiment addresses T1, brain MAO-A (Rattus norvegicus, UniProt P21396).
T1 construct: Rat brain mitochondrial fractions were prepared; from tissue; host or cells: rat brain mitochondrial fraction
T1 sequence (P21396 1-526): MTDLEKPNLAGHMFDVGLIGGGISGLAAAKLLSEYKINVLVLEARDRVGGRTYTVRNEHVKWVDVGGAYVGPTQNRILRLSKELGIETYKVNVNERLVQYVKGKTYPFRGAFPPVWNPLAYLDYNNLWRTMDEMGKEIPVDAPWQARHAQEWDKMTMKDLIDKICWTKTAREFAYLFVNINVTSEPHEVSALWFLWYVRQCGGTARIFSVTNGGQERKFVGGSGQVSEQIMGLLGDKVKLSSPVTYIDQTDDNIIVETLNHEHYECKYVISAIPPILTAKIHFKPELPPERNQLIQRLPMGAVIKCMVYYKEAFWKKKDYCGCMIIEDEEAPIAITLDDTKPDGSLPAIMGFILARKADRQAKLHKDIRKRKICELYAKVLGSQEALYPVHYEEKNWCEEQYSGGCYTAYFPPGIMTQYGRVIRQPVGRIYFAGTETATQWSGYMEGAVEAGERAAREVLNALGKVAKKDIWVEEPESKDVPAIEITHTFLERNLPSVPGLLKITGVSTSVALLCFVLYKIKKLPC
In words: Brain MAO-A activity in CMS-treated rats. The experiment is classed as in vivo. Particulars: brain of CMS-treated rats, 10 mg/kg oral daily for 6 weeks. How it is done:
(§1) 3. Administration and Doses • Non CMS-treated Saline group: 10 ml/kg/day. • CMS-treated Saline group: 10 ml/kg/day. • Composition I (200) group: 200 mg/kg/day. • Composition I (150) group: 150 mg/kg/day. • Fluoxetine group (positive control): 10 mg/kg/day.
(§2) Animals therein were divided randomly into the following four subgroups: • (1) Composition I (200) group: received composition I at 200 mg/kg/day; • (2) Composition I (150) group: received composition I at 150 mg/kg/day; • (3) Fluoxetine group: received fluoxetine 10 mg/kg/day; (positive control); • (4) CMS-treated saline group: received saline 10 mL/kg/day. (negative control).
(§3) 24 h after the last test of sucrose intake, between 10:00 a.m. and 11:00 a.m., all animals were decapitated quickly to get venous blood. Serum was separated by centrifugation at 3000 rpm and stored at −20° C. until assay of cortisol concentration. Brain tissues were rapidly removed on the ice-plate. The tissues were washed with cold saline, blotted dry and stored at −80° C. until assays of monoamine oxidase A and B (MAO-A and MAO-B) activity.
Rat brain mitochondrial fractions were prepared following the procedure described in Schurr and Livne, 1976. MAO activity was assessed by spectrophotometer as described in Yu et al., 2002. […] The organic phase was measured at wavelength of 280 nm and 242 nm for MAO-A and MAO-B assay with spectrophotometer, respectively. […]

The subject of another experiment is serum cortisol. In words: Serum cortisol level in CMS-treated rats (radioimmunoassay). The experiment is classed as in vivo. How it is done:
as §1, §2, §3
Serum cortisol level was assayed using a radioimmunoassay method following the manufacturer's instructions. (Manufacturer: Bejing Furui Biotechnology Company, P.R. China. Product code: FR-FJ-055).

By inhibition is commonly meant the percentage by which the read-out fell short of the control. A higher inhibition goes with a response far below the control. For `CNCCC(Oc1ccc(C(F)(F)F)cc1)c1ccccc1` (stereo not shown) [Fluoxetine, Fluoxetine Hydrochloride], the “MAO activity A” value at brain MAO-A is given as 78.05 ± 3.68 U/g protein. This compound yielded an inhibition at 10 mg/kg against brain MAO-A (rat) of 16.4%. For the same compound, the “effect on serum cortisol levels (in words)” value in the experiment with serum cortisol (CMS-treated rats, fluoxetine (10 mg/kg)) is listed as “did not cause any significant alteration”. The compound further yielded a Cortisol level in the experiment on serum cortisol (serum of CMS-treated rats, 10 mg/kg oral daily for 6 weeks) of 28.76 ± 0.56 ng/mL.
